The source of these data is patent publication US10168342B2, “Lipid probes and uses thereof” (THE SCRIPPS RESEARCH INSTITUTE, priority 2015, dated 2019).

Assay [1] addresses T1, human NUCB1 (Homo sapiens, UniProt Q02818).
T1 construct: made in house; host or cells: Escherichia coli BL21(DE3)
T1 sequence (Q02818 27-461): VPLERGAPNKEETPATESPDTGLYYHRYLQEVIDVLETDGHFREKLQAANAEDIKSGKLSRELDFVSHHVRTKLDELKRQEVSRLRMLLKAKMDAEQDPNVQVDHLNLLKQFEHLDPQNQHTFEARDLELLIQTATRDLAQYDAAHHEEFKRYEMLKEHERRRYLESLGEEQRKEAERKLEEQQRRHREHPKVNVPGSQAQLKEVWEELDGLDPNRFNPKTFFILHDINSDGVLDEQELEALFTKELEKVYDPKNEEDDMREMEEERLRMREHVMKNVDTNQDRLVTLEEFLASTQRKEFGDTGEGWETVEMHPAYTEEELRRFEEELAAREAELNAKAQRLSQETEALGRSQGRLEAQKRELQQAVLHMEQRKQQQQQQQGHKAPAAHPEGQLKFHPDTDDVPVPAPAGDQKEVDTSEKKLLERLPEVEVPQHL
Briefly: FluoPol assay / high throughput screen with Fl-AEA and recombinant NUCB1. Type of assay: binding. To be noted: for suppression of the NUCB1-FluoPol signal (blockade of Fl-AEA binding): competitor lipids, recombinant NUCB1. How it is done: FluoPol conditions were optimized by screening various concentrations of Fl-AEA, hNUCB1, CaCl2 and Pluronic F-127 against positive and negative controls. Arachidonic acid (20 μM final) was used as a positive control, and DMSO as a negative. Additionally, protein-free controls were used to normalize for background signal. […] The Z′-factor for these conditions was determined to be 0.54, indicating a high signal to noise assay.
A 10 μL solution of hNUCB1 (1 μM), Fl-AEA (0.5 μM), CaCl2 (20 μM), and Pluronic F-127 (0.01%) was added to a Greiner 384-well plate. Additionally, in some wells protein was omitted to serve as a blank control for background signal. To the protein containing wells 16,000 compounds (50 nL in DMSO, 2 mM) from the Maybridge Hitfinder library were added by a pin-tool robot. Additionally, on each plate to some wells arachidonic acid (20 μM final) or DMSO were added as positive and negative controls to allow normalization between plates. The plates were allowed to incubate for 5 minutes at room temperature, then fluorescence polarization was measured by measuring fluorescence intensity through polarized 595 nm filters. Hits were selected based on maximal probe competition.

The next assay addresses T2, NENF (Homo sapiens, UniProt Q9UMX5).
T2 construct: Full-length cDNAs encoding for the each protein of interest were subcloned into pcDNA3.1 myc-His A; Myc (myc-His of pcDNA3.1 myc-His A); expressed in transfected cells; host or cells: HEK293T (lysates)
Kind of assay: In vitro gel-based competition of AEA-DA probe labeling of NENF. Type of assay: binding. Particulars: NENF-transfected HEK293T lysates; for competition of AEA-DA probe labeling of recombinant NENF: competitors 1-100 μM. How it is done: Full-length cDNAs encoding for the each protein of interest were subcloned into pcDNA3.1 myc-His A (Invitrogen) or used directly for transfections if available in a eukaryotic expression vector. HEK293T cells were grown to ˜70% confluence under standard growth conditions before adding the appropriate cDNA [control cells (“mock”) received an equal amount of empty pcDNA3.1 myc-His A vector] and FuGENE 6 or X-tremeGENE HP (Roche) transfection reagent according to the manufacturer's instructions. Cells were incubated for 36-48 hours before labeling in situ or harvesting for in vitro experiments.
Cell lysates (1.0 mg/mL), the indicated lipid probe (2.5 or 5 μM) and, for recombinant NUCB1 competition experiments, purified hNUCB1 (250 nM) and CaCl2 (100 μM) were mixed on ice. […] The samples were then irradiated with UV light and subjected to previously described click chemistry conditions. As before, each reaction was quenched with 4×SDS loading buffer (17 μL), and proteins were resolved using SDS-PAGE (10% acrylamide gel) and analyzed by in-gel fluorescent scanning on a Hitachi FMBIO-II flatbed fluorescence scanner. NUCB1 competition was quantitatively assessed by measuring the fluorescent intensity of the corresponding gel band using ImageJ 1.48v and normalizing this value by a non-competed gel band to control for loading differences.
(§1) Metabolite data are shown as mean±SEM (n=3-5/group). Differences between two groups were determined using Student's t test (unpaired, two-tailed) and significance was denoted for P values<0.05.

For assay [2], the target named is T1, human NUCB1. Kind of assay: In vitro gel-based competition of AEA-DA probe labeling of NUCB1. It is filed as binding. Particulars: AEA-DA 5.0 μM, lipids 20×, NUCB1-transfected HEK293T lysates. How it is done: Human NUCB1 lacking the N-terminal signal sequence (M1-A26) was subcloned into pET45b(+) vector (Novagen) using the following PCR primers for amplification: 5′-CATCAATTGTGTGCCCCTGGAGAGAG-3′ and 5′-AGCAAGCTTTACAGATGTTGGGGCACC-3′. Following transformation of Escherichia coli strain BL21(DE3) with hNucb1ΔSSpET45b(+), a single colony was isolated and grown in Terrific Broth containing carbenicillin (100 mg/L) at 37° C. to an OD600 of 0.8. Protein expression was induced with IPTG (1.0 mM) and the cells were incubated at 20° C. with shaking overnight. After centrifugation, cells pellets were resuspended in cold buffer containing HEPES (0.05M), NaCl (0.03 M), imidazole (5.0 mM), DNase (0.1 mg/mL), MgCl2 (1.0 mM), CaCl2 (1.0 mM) and EDTA-free Complete Protease Inhibitor Cocktail and lysed using a microfluidizer. […] The suspension was applied to a column and the retained resin was washed with HEPES buffer containing 500 mM NaCl until the eluent was clean of DNA and protein (A280/260) and then with HEPES buffer containing 10 mM imidazole (5 mL/1 mL resin). Protein was then slowly eluted with HEPES buffer containing 50 mM imidazole in 1.0 mL fractions and the combined fractions containing hNUCB1 were passed through a Sephadex G-25M column to remove imidazole and concentrated in an Amicon centrifugal filter device (Millipore). These conditions produced hNUCB1 at approximately 10 mg/L of culture; however, several lower molecular weight fragments were also present in this preparation. hNUCB1 was further purified by size exclusion chromatography.
Cell lysates (1.0 mg/mL), the indicated lipid probe (2.5 or 5 μM) and, for recombinant NUCB1 competition experiments, purified hNUCB1 (250 nM) and CaCl2 (100 μM) were mixed on ice. DMSO or competitors were then added to the proteome mixture (50 μM) in 96-well plates and each sample was incubated for 15 min at 37° C. The samples were then irradiated with UV light and subjected to previously described click chemistry conditions. As before, each reaction was quenched with 4×SDS loading buffer (17 μL), and proteins were resolved using SDS-PAGE (10% acrylamide gel) and analyzed by in-gel fluorescent scanning on a Hitachi FMBIO-II flatbed fluorescence scanner. NUCB1 competition was quantitatively assessed by measuring the fluorescent intensity of the corresponding gel band using ImageJ 1.48v and normalizing this value by a non-competed gel band to control for loading differences.
as §1

In assay [3] the test system is NAEs, NATs, AA and 2-AG in Neuro2a cells. Kind of assay: Targeted LC-MS (MRM) analysis of lipids from Neuro2a cells. Particulars: Neuro2a cells, 10 μM (PF-7845 1 μM). It is filed as cell-based, mouse. How it is done: Discovery metabolite profiling was performed as described by Saghatelian et al., “Assignment of endogenous substrates to enzymes by global metabolite profiling,” Biochemistry 43:14332-14339 (2004) with several modifications. […] The media from the cells was removed and cells were washed with DPBS (2×5.0 mL) before adding freshly prepared media solutions containing vehicle or compound. After incubating for 6 h at 37° C. and subsequent removal of the media, the cells were harvested by scrapping in cold DPBS (3 mL) and pelleted by centrifugation in glass vials. The pellets were washed once with cold DPBS (3 mL) and then cold […] (2:1) (3 mL) was added. After vortexing, the vials were centrifuged (3,000×g, 10 min, 4° C.) and the bottom (organic) layer was transferred to a new glass vial and concentrated under a stream of N2. Samples were stored at −80° C. until the day of analysis when they were reconstituted in Mobile Phase A (100 μL, see below).
Neuro2a cells were treated and lipids extracted as described above. A mixture of internal standards [AEA-d4 (10 pmol), 2-AG-d5 (100 pmol), AA-d8 (100 pmol), PEA-d4 (100 pmol), PDA (1.0 nmol)] was added to the organic phase prior to extracting cells. NAEs, MAGs, AA and NATs were analyzed similarly to previously described methods (Saghatelian et al., 2004). The following MS parameters were used to measure the indicated metabolites by MRM (precursor ion, product ion, collision energy, polarity): NAE 20:4 (AEA) (348, 62, 12, positive), AEA-d4 (352, 66, 12, positive), NAE 16:0 (PEA) (300, 62, 12, positive), PEA-d4 (304, 62, 12, positive), NAE 18:0 (328, 62, 12, positive), NAE 18:1 (326, 62, 12, positive), NAE 18:2 (324, 62, 12, positive), 2-AG (379, 287, 8, positive), 2-AG-d5 (384, 287, 8, positive), AA (303, 259, 4, negative), AA-d8 (311, 267, 4, negative), NAT 20:4 (410, 80, 35, negative), NAT 22:1 (444, 80, 35, negative), NAT 24:1 (472, 80, 35, negative), NAT 24:0 (474, 80, 35, negative), NAT 26:0 (502, 80, 35, negative). The indicated lipids were quantified by measuring the area under the peak relative to an internal standard (AEA-d4 for AEA and NAE 18:2; PEA-d4 for PEA, NAE 18:1 and NAE 18:0; 2-AG-d5 for 2-AG; AA-d8 for AA and 20:4 NAT; PDA for all other NATs).

T2 sequence (Q9UMX5 32-172, species assumed): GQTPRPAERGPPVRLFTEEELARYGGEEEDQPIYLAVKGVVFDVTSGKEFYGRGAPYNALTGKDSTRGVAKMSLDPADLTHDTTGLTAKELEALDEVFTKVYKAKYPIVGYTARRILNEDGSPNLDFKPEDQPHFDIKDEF

Regarding `CCCCC[C@H](O)/C=C/[C@H]1C=CC(=O)[C@@H]1CCCCCCC(=O)O` [prostaglandin A1], the “suppression of the NUCB1-FluoPol signal (blockade of Fl-AEA binding)” value (“suppression of the NUCB1-FluoPol signal” below) at human NUCB1 [1] is reported as “minimal blockade”.

As for `CCCCC[C@H](O)/C=C/[C@@H]1[C@@H](C/C=C\CCCC(=O)NCCO)[C@@H](O)C[C@H]1O` [PGF2α-EA], the “suppression of the NUCB1-FluoPol signal” value on human NUCB1 [1] is listed as “minimal blockade”.

`C=Cc1c(C)c2cc3[n-]c(cc4nc(cc5nc(cc1[n-]2)C(C)=C5CCC(=O)O)C(CCC(=O)O)=C4C)c(C)c3C=C.[Cl-].[Fe+3]` [hemin]: the IC50 at NENF (read-out: IC50, inhibition of AEA-DA labeling of NENF) is 2000 nM. Further, the “competition of AEA-DA probe labeling of recombinant NENF” value at NENF is “inhibited in a concentration-dependent manner”.

As for `CCCCC/C=C\C/C=C\C/C=C\C/C=C\CCCC(=O)O` [AA, Arachidonic acid], the “competition of AEA-DA probe labeling of recombinant NUCB1 by lipids” value at human NUCB1 [2] is recorded as “blocked”. Further, the “suppression of the NUCB1-FluoPol signal” value on human NUCB1 [1] is “Concentration-dependent suppression”. Further, the “competition of AEA-DA probe labeling of recombinant NENF” value on NENF is listed as “competitively blocked”.

Consider `CC(C)CCC[C@@H](C)[C@H]1CC[C@H]2[C@@H]3CC=C4C[C@@H](O)CC[C@]4(C)[C@H]3CC[C@]12C` [cholesterol], for which the “suppression of the NUCB1-FluoPol signal” value at human NUCB1 [1] was “minimal blockade”.

Take `CCCCCCCCCCCCC/C=C/[C@@H](O)[C@@H](N)CO` [sphingosine]: the “suppression of the NUCB1-FluoPol signal” value on human NUCB1 [1] was “minimal blockade”.

`O=C(Nc1cccnn1)N1CCC(=Cc2cccc(Oc3ccc(C(F)(F)F)cn3)c2)CC1` [PF-7845, reference compound]: the 2-AG levels result in assay [3] was “greater degree”. Moreover, the “cellular concentrations of NAEs and NATs” value in assay [3] (6 h) was “elevated”.

`CCCCC/C=C\C/C=C\C/C=C\C/C=C\CCCC(=O)NCCCCCNC(=O)c1ccc(-c2c3ccc(=[N+](C)C)cc-3oc3cc(N(C)C)ccc23)c(C(=O)[O-])c1` [Fl-AEA, 2-(6-(Dimethylamino)-3-(dimethylmninio)-3H-xanthen-9-yl)-5-((5-((5Z,8Z,11Z,14Z)-icosa-5,8,11,14-tetraenamido)pentyl)carbamoyl)benzoate]: the “binding to recombinant, purified human NUCB1 (FluoPol signal)” value at human NUCB1 [1] (Fl-AEA 0.5 μM, NUCB1 1.0 μM) is on record as “substantial increase in fluorescence polarization (FluoPol) signal”.

Regarding `CCCCC[C@H](O)/C=C/[C@H]1C(=O)C[C@H](O)[C@@H]1C/C=C\CCCC(=O)NCCO` [PGD2-EA], the “suppression of the NUCB1-FluoPol signal” value at human NUCB1 [1] was “minimal blockade”.

Turning to `CCCCC/C=C\C/C=C\C/C=C\C/C=C\CCCC(=O)OC(CO)CO` [2-AG], at human NUCB1 [2], the “competition of AEA-DA probe labeling of recombinant NUCB1 by lipids” value is on record as “blocked”. Besides, at human NUCB1 [1], the “suppression of the NUCB1-FluoPol signal” value was “Concentration-dependent suppression”.

For the compound `CCCCC[C@H](O)/C=C/C1=C(CCCCCCC(=O)O)C(=O)CC1` [prostaglandin B1], the “suppression of the NUCB1-FluoPol signal” value on human NUCB1 [1] is “minimal blockade”.

As for `CCCCC[C@H](O)/C=C/[C@H]1C(=O)C[C@H](O)[C@@H]1C/C=C\CCCC(=O)O` [prostaglandin D2], the “suppression of the NUCB1-FluoPol signal” value at human NUCB1 [1] is “minimal blockade”.

What is called IC50 is the concentration that inhibits the measured activity by half.
